These results are taken from patent publication US20140148443A1, “Novel Imidazolines as dual inhibitors of MDM2 and MDMX” (priority 2012, published 2014).

Structures are written as SMILES.

The target of one assay is T1, GST-tagged MDMX (Homo sapiens, UniProt O15151).
T1 sequence (O15151 1-490): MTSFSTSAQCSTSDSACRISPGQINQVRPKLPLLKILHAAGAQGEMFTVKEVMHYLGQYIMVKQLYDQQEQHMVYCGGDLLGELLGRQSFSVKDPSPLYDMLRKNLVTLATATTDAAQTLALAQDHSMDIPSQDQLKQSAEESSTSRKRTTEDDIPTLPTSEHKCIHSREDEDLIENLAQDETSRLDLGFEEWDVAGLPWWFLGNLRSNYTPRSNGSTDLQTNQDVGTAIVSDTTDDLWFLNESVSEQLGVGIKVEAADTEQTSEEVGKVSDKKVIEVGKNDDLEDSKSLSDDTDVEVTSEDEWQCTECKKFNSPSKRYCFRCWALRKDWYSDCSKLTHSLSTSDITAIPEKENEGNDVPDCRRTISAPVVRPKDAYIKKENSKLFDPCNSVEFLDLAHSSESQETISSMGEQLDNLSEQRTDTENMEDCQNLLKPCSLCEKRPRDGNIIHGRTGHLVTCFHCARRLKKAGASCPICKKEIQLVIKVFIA
Nature of the assay: HTRF binding assay of GST-tagged MDMX to p53 peptide.

The target of assay [1] is recombinant GST-tagged MDM2 (Homo sapiens, UniProt Q00987). Put plainly: HTRF assay of interaction between p53 peptide and GST-tagged MDM2. The conditions noted are these: inhibition of GST-MDM2 (160 ng/ml) binding to biotinylated p53-peptide. Here is the method:
The ability of a test compound to inhibit the interaction between p53 and MDM2 protein was measured by an HTRF (homogeneous time-resolved fluorescence) assay in which recombinant GST-tagged MDM2 binds to a peptide that resembles the MDM2-interacting region of p53 Aca-[…]-OH hereinafter p53-peptide). Binding of GST-MDM2 protein and p53-peptide (biotinylated on its N-terminal end) is registered by the FRET (fluorescence resonance energy transfer) between Europium (Eu)-labeled anti-GST antibody and streptavidin-conjugated Allophycocyanin (APC).
The test was performed in black flat-bottom 384-well plates (Costar) in a total volume of 40 uL containing: 90 nM biotinylated peptide, 160 ng/ml GST-MDM2, 20 nM streptavidin-APC (PerkinElmerWallac), 2 nM Eu-labeled anti-GST-antibody (PerkinElmerWallac), 0.02% bovine serum albumin (BSA), 1 mM dithiothreitol (DTT) and 20 mM […] (TBS) buffer as follows: add 10 uL of GST-MDM2 (640 ng/ml working solution) in reaction buffer to each well. Add 10 uL diluted compounds (1:5 dilution in reaction buffer) to each well, mix by shaking. Add 20 uL biotinylated p53 peptide (180 nM working solution) in reaction buffer to each well and mix on shaker. Incubate at 37° C. for 1 h. Add […] streptavidin-APC and Eu-anti-GST antibody mixture (6 nM Eu-anti-GST and 60 nM streptavidin-APC working solution) in TBS buffer with 0.02% BSA, shake at room temperature for 30 minutes and read using a TRF-capable plate reader at 665 and 615 nm (Victor 5, Perkin ElmerWallac). If not specified, the reagents were purchased from Sigma Chemical Co.

recombinant GST-tagged MDM2, sequence (Q00987 whole entry): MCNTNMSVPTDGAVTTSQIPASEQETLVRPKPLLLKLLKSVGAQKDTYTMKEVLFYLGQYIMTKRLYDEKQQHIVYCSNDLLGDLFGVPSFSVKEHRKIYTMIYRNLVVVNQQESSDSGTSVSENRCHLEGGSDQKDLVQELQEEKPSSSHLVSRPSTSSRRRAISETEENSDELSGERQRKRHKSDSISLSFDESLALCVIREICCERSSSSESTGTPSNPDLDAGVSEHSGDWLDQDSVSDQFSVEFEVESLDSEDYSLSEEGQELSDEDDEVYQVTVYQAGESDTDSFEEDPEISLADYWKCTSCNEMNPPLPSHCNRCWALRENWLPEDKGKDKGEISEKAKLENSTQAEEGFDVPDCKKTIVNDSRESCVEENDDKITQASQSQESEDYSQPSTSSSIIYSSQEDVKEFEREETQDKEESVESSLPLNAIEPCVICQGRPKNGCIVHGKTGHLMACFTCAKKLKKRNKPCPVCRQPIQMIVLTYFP

On to `CCOc1cc(Cl)c(S(C)(=O)=O)cc1C1=N[C@@](C)(c2ccc(Cl)cc2)[C@@](C)(c2ccc(Cl)cc2)N1C(=O)N1CCN(CCS(C)(=O)=O)CC1` [Example 18, [(4S,5R)-2-(4-Chloro-2-ethoxy-5-methanesulfonyl-phenyl)-4,5-bis-(4-chloro-phenyl)-4,5-dimethyl-4,5-dihydro-imidazol-1-yl]-[4-(2-methanesulfonyl-ethyl)-piperazin-1-yl]-methanone], for which the IC50 is 1430 nM on GST-tagged MDMX and 6 nM in assay [1].
Regarding `CCOc1cc(Cl)c(S(C)(=O)=O)cc1C1=N[C@@](C)(c2ccc(Cl)cc2)[C@@](C)(c2ccc(Cl)cc2)N1C(=O)N1CCC(NC(=O)NC2CCS(=O)(=O)C2)CC1` (stereo partly drawn) [Example 34, 1-{1-[(4S,5R)-2-(4-Chloro-2-ethoxy-5-methanesulfonyl-phenyl)-4,5-bis-(4-chloro-phenyl)-4,5-dimethyl-4,5-dihydro-imidazole-1-carbonyl]-piperidin-4-yl}-3-(1,1-dioxo-tetrahydro-1λ6-thiophen-3-yl)-urea], the IC50 was found to be 1350 nM at GST-tagged MDMX and 6.3 nM in assay [1].
On to `CCOc1cc(Cl)c(S(=O)(=O)NC(C)(C)C)cc1C1=N[C@@](C)(c2ccc(Cl)cc2)[C@@](C)(c2ccc(Cl)cc2)N1C(=O)N1CCCC(O)C1` (stereo partly drawn) [Example 54, 5-[(4S,5R)-4,5-Bis-(4-chloro-phenyl)-1-(3-hydroxy-piperidine-1-carbonyl)-4,5-dimethyl-4,5-dihydro-1H-imidazol-2-yl]-N-tert-butyl-2-chloro-4-ethoxy-benzenesulfonamide], for which the IC50 turned out to be 4000 nM on GST-tagged MDMX and 16.1 nM in assay [1].
On to `CCOc1cc(Cl)c(S(C)(=O)=O)cc1C1=N[C@@](C)(c2ccc(Cl)cc2)[C@@](C)(c2ccc(Cl)cc2)N1C(=O)N1CCC(CCS(C)(=O)=O)CC1` [Example 13, [(4S,5R)-2-(4-Chloro-2-ethoxy-5-methanesulfonyl-phenyl)-4,5-bis-(4-chloro-phenyl)-4,5-dimethyl-4,5-dihydro-imidazol-1-yl]-[4-(2-methanesulfonyl-ethyl)-piperidin-1-yl]-methanone], for which the values for the IC50 (at GST-tagged MDMX; in assay [1]) were 1370 nM and 6.1 nM, respectively.
For `CCOc1cc(Cl)c(S(C)(=O)=O)cc1C1=N[C@@](C)(c2ccc(Cl)cc2)[C@@](C)(c2ccc(Cl)cc2)N1C(=O)N1CCN(CC(=O)N(CCOC)CCOC)CC1` [Example 15, 2-{4-[(4S,5R)-2-(4-Chloro-2-ethoxy-5-methanesulfonyl-phenyl)-4,5-bis-(4-chloro-phenyl)-4,5-dimethyl-4,5-dihydro-imidazole-1-carbonyl]-piperazin-1-yl}-N,N-bis-(2-methoxy-ethyl)-acetamide] the same measures were 1140 nM and 5.5 nM.
Regarding `CC(C)Oc1cc(Cl)c(S(C)(=O)=O)cc1C1=N[C@@](C)(c2ccc(Cl)cc2)[C@@](C)(c2ccc(Cl)cc2)N1C(=O)N1CCC(CC(N)=O)CC1` [Example 41, 2-{1-[(4S,5R)-2-(4-Chloro-2-isopropoxy-5-methanesulfonyl-phenyl)-4,5-bis-(4-chloro-phenyl)-4,5-dimethyl-4,5-dihydro-imidazole-1-carbonyl]-piperidin-4-yl}-acetamide], the IC50 came out at 170 nM at GST-tagged MDMX and 6.9 nM in assay [1].
As to `CCOc1cc(Cl)c(S(=O)(=O)NC(C)(C)C)cc1C1=N[C@@](C)(c2ccc(Cl)cc2)[C@@](C)(c2ccc(Cl)cc2)N1C(=O)N1CCN(CC(=O)N2CCN(C)CC2)CC1` [Example 47, 5-((4S,5R)-4,5-Bis-(4-chloro-phenyl)-4,5-dimethyl-1-{4-[2-(4-methyl-piperazin-1-yl)-2-oxo-ethyl]-piperazine-1-carbonyl}-4,5-dihydro-1H-imidazol-2-yl)-N-tert-butyl-2-chloro-4-ethoxy-benzenesulfonamide], the results for the IC50 (at GST-tagged MDMX; in assay [1]) were 1080 nM and 6.6 nM, respectively.
For `CCOCCN(CCOCC)C(=O)CC1CCN(C(=O)N2C(c3cc(S(C)(=O)=O)c(Cl)cc3OCC)=N[C@@](C)(c3ccc(Cl)cc3)[C@@]2(C)c2ccc(Cl)cc2)CC1` [Example 25, 2-{1-[(4S,5R)-2-(4-Chloro-2-ethoxy-5-methanesulfonyl-phenyl)-4,5-bis-(4-chloro-phenyl)-4,5-dimethyl-4,5-dihydro-imidazole-1-carbonyl]-piperidin-4-yl}-N,N-bis-(2-ethoxy-ethyl)-acetamide] the same measures were 1510 nM and 4.4 nM.
For `CCOc1cc(Cl)c(S(C)(=O)=O)cc1C1=N[C@@](C)(c2ccc(Cl)cc2)[C@@](C)(c2ccc(Cl)cc2)N1C(=O)N1CCNC(=O)C1` [Example 2, 4-[(4S,5R)-2-(4-Chloro-2-ethoxy-5-methanesulfonyl-phenyl)-4,5-bis-(4-chloro-phenyl)-4,5-dimethyl-4,5-dihydro-imidazole-1-carbonyl]-piperazin-2-one], the IC50 at GST-tagged MDMX worked out at 1080 nM; in assay [1], 5.7 nM.
As for `CCOc1cc(Cl)c(S(C)(=O)=O)cc1C1=N[C@@](C)(c2ccc(Cl)cc2)[C@@](C)(c2ccc(Cl)cc2)N1C(=O)N1CCN(CC(=O)NC)CC1` [Example 29, 2-{4-[(4S,5R)-2-(4-Chloro-2-ethoxy-5-methanesulfonyl-phenyl)-4,5-bis-(4-chloro-phenyl)-4,5-dimethyl-4,5-dihydro-imidazole-1-carbonyl]-piperazin-1-yl}-N-methyl-acetamide], the IC50 is 1010 nM on GST-tagged MDMX and 5 nM in assay [1].
Consider `CCOc1cc(Cl)c(S(C)(=O)=O)cc1C1=N[C@@](C)(c2ccc(Cl)cc2)[C@@](C)(c2ccc(Cl)cc2)N1C(=O)N1CCC(NS(C)(=O)=O)CC1` [Example 33, N-{1-[(4S,5R)-2-(4-Chloro-2-ethoxy-5-methanesulfonyl-phenyl)-4,5-bis-(4-chloro-phenyl)-4,5-dimethyl-4,5-dihydro-imidazole-1-carbonyl]-piperidin-4-yl}-methanesulfonamide], for which the IC50 was 1120 nM on GST-tagged MDMX and 5.3 nM in assay [1].
Regarding `CCOc1cc(Cl)c(S(C)(=O)=O)cc1C1=N[C@@](C)(c2ccc(Cl)cc2)[C@@](C)(c2ccc(Cl)cc2)N1C(=O)N1CCC(CC(=O)N(CCOC)CCOC)CC1` [Example 24, 2-{1-[(4S,5R)-2-(4-Chloro-2-ethoxy-5-methanesulfonyl-phenyl)-4,5-bis-(4-chloro-phenyl)-4,5-dimethyl-4,5-dihydro-imidazole-1-carbonyl]-piperidin-4-yl}-N,N-bis-(2-methoxy-ethyl)-acetamide], the IC50 came out at 1520 nM at GST-tagged MDMX and 7.2 nM in assay [1].
`CCOc1cc(Cl)c(S(C)(=O)=O)cc1C1=N[C@@](C)(c2ccc(Cl)cc2)[C@@](C)(c2ccc(Cl)cc2)N1C(=O)N1CCC(N(C)CCCN(C)C)C1` (stereo partly drawn) [Example 37, [(4S,5R)-2-(4-Chloro-2-ethoxy-5-methanesulfonyl-phenyl)-4,5-bis-(4-chloro-phenyl)-4,5-dimethyl-4,5-dihydro-imidazol-1-yl]-{3-[(3-dimethylamino-propyl)-methyl-amino]-pyrrolidin-1-yl}-methanone]: the IC50 amounted to 3910 nM on GST-tagged MDMX and 6.1 nM in assay [1].
In the case of `CCOc1cc(Cl)c(S(C)(=O)=O)cc1C1=N[C@@](C)(c2ccc(Cl)cc2)[C@@](C)(c2ccc(Cl)cc2)N1C(=O)N1CCC(NC(=O)NC2CCCC2)CC1` [Example 31, 1-{1-[(4S,5R)-2-(4-Chloro-2-ethoxy-5-methanesulfonyl-phenyl)-4,5-bis-(4-chloro-phenyl)-4,5-dimethyl-4,5-dihydro-imidazole-1-carbonyl]-piperidin-4-yl}-3-cyclopentyl-urea], the IC50 at GST-tagged MDMX was 1590 nM; in assay [1], 5.3 nM.
For `CCOc1cc(Cl)c(S(C)(=O)=O)cc1C1=N[C@@](C)(c2ccc(Cl)cc2)[C@@](C)(c2ccc(Cl)cc2)N1C(=O)N1CCC2(CCN(CCS(=O)(=O)CC)CC2)CC1` [Example 28, [(4S,5R)-2-(4-Chloro-2-ethoxy-5-methanesulfonyl-phenyl)-4,5-bis-(4-chloro-phenyl)-4,5-dimethyl-4,5-dihydro-imidazol-1-yl]-[9-(2-ethanesulfonyl-ethyl)-3,9-diaza-spiro[5.5]undec-3-yl]-methanone] the same measures were 1490 nM and 4.6 nM.

Broadly, the IC50 is the concentration needed to halve the response being measured.
